The subject of assay [1] is invasion of inflammatory cells into the lungs. The experiment in a line: Histopathological examination of H&E stained lung tissue slices, mice with asthma (OVA). The settings on record: OVA-sensitized BALB/c mice, result in words. In kind it is in vivo. How it is done:
(§1) In Example 2, mice with asthma were used to conduct in vivo experiments, and ovalbumin (OVA) was used as an allergen.
(§2) The mice were sensitized (or challenged) according to the steps shown in FIG. 9 (see Lee et al., Lentiviral-mediated GATA-3 RNAi decreases allergic airway inflammation and hyperresponsiveness. Molecular Therapy, 2008; 16:60-65, which is incorporated herein in its entirety by reference). First, 50 μg OVA (using 2 mg alumina (Alum, Alumlmuject, Pierce Chemical, Rockford, Ill., USA) as an adjuvant) was injected into six to eight-week-old BALB/c female mice (from National Laboratory Animal Center, Taiwan) by intraperitoneal injection (i.p.). At 0th, 14th, and 28th day, the mice were injected with OVA at the same dosage. Before the administration of OVA at the forty-first and the forty-second days, different dosages of brazilin (high dose: 430 μg/mice; low dose: 43 μg/mice) were administrated to the mice by intraperitoneal injection (i.p.) or intratracheal instillation (i.t.). During the fortieth to the forty-second days, 100 μg OVA was dissolved in 40 μl PBS, and was administrated to the mice by intranasal instillation (i.n.) (once everyday, for three days). At the forty-third day, airway hyperresponsiveness of the mice was observed. […]

Assay [2] has as its system IL-5. The experiment in a line: ELISA of IL-5 in bronochial alveolar lavage fluid, mice with asthma (OVA). Format: in vivo, BALB/c mice. The settings on record: for IL-5 concentration (pico-gram/ml): i.p. or i.t., OVA-sensitized BALB/c mice. Here is the method:
as §1, §2
(§3) In Experiment D, after 24 hours from the last administration of OVA into the noses of the mice, the mice were sacrificed, and the blood was collected from the orbital cavities of the mice. […] Cells obtained after the centrifugation were re-suspended in a 1 ml HBSS buffer solution, and the total cell number was counted with a hemocytometer.
(§4) The bronochial alveolar lavage fluid collected in Experiment E was centrifuged at 4° C. and with a revolution speed of 400 g for 10 minutes. After the supernatant was collected, the expression of eotaxin, IL-4, IL-5, and IFN-γ was analyzed with an ELISA kit (R&D Systems, Inc., USA). […]
Background: An ELISA detects its analyte on a solid surface through an enzyme-linked reagent.

Assay [3] deals with eotaxin. The experiment in a line: ELISA of eotaxin in bronochial alveolar lavage fluid, mice with asthma (OVA). The settings on record: for Eotaxin concentration (pico-gram/ml): i.p. or i.t., OVA-sensitized BALB/c mice. Format: in vivo, BALB/c mice. Here is the method:
as §1, §2, §3, §4

Assay [4] relates to mice with asthma. The assay can be described thus: Airway (pulmonary) resistance determination, invasive body plethysmography with methacholine. In kind it is in vivo, BALB/c mice. The settings on record: for pulmonary resistance Rrs (cm H2O/ml): OVA-sensitized BALB/c mice. Here is the method: as §1
The mice were sensitized (or challenged) according to the steps shown in FIG. 9 (see Lee et al., Lentiviral-mediated GATA-3 RNAi decreases allergic airway inflammation and hyperresponsiveness. Molecular Therapy, 2008; 16:60-65, which is incorporated herein in its entirety by reference). First, 50 μg OVA (using 2 mg alumina (Alum, Alumlmuject, Pierce Chemical, Rockford, Ill., USA) as an adjuvant) was injected into six to eight-week-old BALB/c female mice (from National Laboratory Animal Center, Taiwan) by intraperitoneal injection (i.p.). At 0th, 14th, and 28th day, the mice were injected with OVA at the same dosage. Before the administration of OVA at the forty-first and the forty-second days, different dosages of brazilin (high dose: 430 μg/mice; low dose: 43 μg/mice) were administrated to the mice by intraperitoneal injection (i.p.) or intratracheal instillation (i.t.). During the fortieth to the forty-second days, 100 μg OVA was dissolved in 40 μl PBS, and was administrated to the mice by intranasal instillation (i.n.) (once everyday, for three days). At the forty-third day, airway hyperresponsiveness of the mice was observed. At the forty-sixth day, the mice were sacrificed and used to conduct the following Experiments E to G During the above procedure, it was observed if any toxicity response arises after the administration of brazilin to the mice. In this experiment, the mice administrated with OVA were used as a positive control, and the mice not administrated with OVA were used as a negative control.
Airway (pulmonary) resistance determination was carried out by conducting invasive body plethysmography according to the Glaab's method (see Glaab et al., Repetitive measurements of pulmonary mechanics to inhaled cholinergic challenge in spontaneously breathing mice. J Appl Physiol, 2004; 97:1104-1111, which is incorporated herein in its entirety by reference). In this method, the increase of pulmonary resistance of mice administrated with methacholine is observed.
First, BALB/c mice were anesthetized with 70 to 90 mg/kg-body weight of pentobarbital sodium (Sigma), and the trachea of the mice were cut to generate a bore, and the mice were subjected to external ventilation (150 breaths/minute) with a ventilator (Harvard Rodent Ventilator, model 683, Southnatick, Mass., USA) controlled by a computer to maintain the tidal volume at 0.3 ml and the terminal expiring positive pressure at 3 to 4 cm-H2O. A PE-50 pipeline was inserted into the gullets and reached to the chest position of the mice, and the pipeline was connected to a pressure transducer (LDS GOULD, Valley View, Ohio, USA), and the pressure, air flow rate, and the variation of air capacity in the lungs of the mice were recorded. Software (Model PNM-PCT100W, LDS PONEMAH Physiology Platform, LDS GOULD) was used to analyze the airway resistance. An atomizer was used to generate methacholine spray, which was then administrated to the mice via the ventilator. The data was obtained by deducting the pulmonary resistance (0.45 cm H2O.s.ml^−1) gained by the pipeline inserted into the trachea of the mice, wherein pulmonary resistance RL ratio=RL after methacholine nebulization/RL after PBS nebulization.

Turning to `Oc1ccc2c(c1)OC[C@]1(O)Cc3cc(O)c(O)cc3[C@H]21` [brazilin], the “invasion of inflammatory cells (H&E lung slices, FIG. 11)” value in assay [1] is “reduced”. The “production of IL-5 cytokine” value in assay [2] (BALB/c mice, result in words) is recorded as “inhibited”. Besides, the “IL-5 concentration (pico-gram/ml)” value in assay [2] (High dose (430 μg/mice)) is on record as 52.10 ± 6.223 pico-gram/ml; in assay [2] (Low dose (43 μg/mice)), 70.65 ± 6.510 pico-gram/ml. Besides, the “production of β-chemokine, eotaxin” value in assay [3] (BALB/c mice, result in words) is “inhibited”. Moreover, the results for the “Eotaxin concentration (pico-gram/ml)” value in assay [3] (High dose (430 μg/mice)) and in assay [3] (Low dose (43 μg/mice)) were 12.61 ± 1.334 pico-gram/ml and 18.64 ± 3.784 pico-gram/ml, respectively. The “pulmonary resistance Rrs (cm H2O/ml)” value in assay [4] (methacholine 3.125 mg/ml, High dose (430 μg/mice)) was determined as 2.535 ± 0.1251 cm H2O/ml; in assay [4] (methacholine 3.125 mg/ml, Low dose (43 μg/mice)) it was 2.237 ± 0.1567 cm H2O/ml; in assay [4] (methacholine 6.25 mg/ml, High dose (430 μg/mice)), 2.680 ± 0.1676 cm H2O/ml; in assay [4] (methacholine 6.25 mg/ml, Low dose (43 μg/mice)), 2.206 ± 0.0665 cm H2O/ml; in assay [4] (methacholine 12.5 mg/ml, High dose (430 μg/mice)), 3.247 ± 0.1368 cm H2O/ml; in assay [4] (methacholine 12.5 mg/ml, Low dose (43 μg/mice)), 2.432 ± 0.1259 cm H2O/ml. The “pulmonary resistance Rrs (cm H2O/ml)” value came to 3.691 ± 0.1542 cm H2O/ml in assay [4] (methacholine 25 mg/ml, High dose (430 μg/mice)) and 2.869 ± 0.1831 cm H2O/ml in assay [4] (methacholine 25 mg/ml, Low dose (43 μg/mice)). In addition, the “airway resistance of the mice” value in assay [4] (methacholine challenge, BALB/c mice, result in words) is “reduced”.

The values are drawn from patent publication US8796327B2, “Method for inhibiting production of cytokines of T helper cell type II and/or inhibiting production of chemokines using brazilin” (China Medical University, priority 2010, dated 2014).
